Active and inactive are the calls of the source. The calls are words filed in the database; no cut-off is given here.
Legend:
[1] = molecular target: Cyclin-dependent kinase 1 (Homo sapiens, UniProt P06493); assay: Binding affinity to CDK1 (unknown origin) assessed as inhibition constant
[2] = Cmax in nu/nu mouse at 20 mg/kg, ip by LCMS analysis; type: ADME, organism-based; details: in vivo
[3] = system: COLO 205; assay: Antitumor activity against human COLO 205 cells xenografted in athymic nude mouse model assessed as gross log cell kill at 4 mg/kg, ip administered twice daily in presence of gemcitabine (Gemcitabine alone = 0.5%); type: functional
[4] = system: COLO 205; assay: Antitumor activity against human COLO 205 cells xenografted in athymic nude mouse model assessed as gross log cell kill at 30 mg/kg, ip administered twice daily in presence of gemcitabine (Gemcitabine alone = 0.27%); type: functional
[5] = system: HT-29; assay: Potentiation of gemcitabine induced cytotoxicity in human HT-29 cells assessed as cell survival at 360 nM measured after 4 to 48 hrs by coulter counter method relative to gemcitabine alone; type: functional; details: time 4-48 hrs, read-out: Activity
[6] = system: COLO 205; assay: Antitumor activity against human COLO 205 cells xenografted in athymic nude mouse model assessed as tumor growth delay by measuring test to control tumor ratio at 7.5 mg/kg, ip administered once daily in presence of gemcitabine (Gemcitabine alone = 3%); type: functional
[7] = system: COLO 205; assay: Antitumor activity against human COLO 205 cells xenografted in athymic nude mouse model assessed as potentiated tumor growth inhibition at 30 mg/kg, ip administered once daily in presence of gemcitabine relative to control; type: functional; details: read-out: TGI
[8] = system: COLO 205; assay: Potentiation factor, ratio of IC50 for human COLO 205 cells to IC50 for human COLO 205 cells in presence of gemcitabine; type: functional
[9] = system: COLO 205; assay: Antitumor activity against human COLO 205 cells xenografted in athymic nude mouse model assessed as tumor growth inhibition at 15 mg/kg, ip administered twice daily in presence of gemcitabine (Gemcitabine alone = 40%); type: functional; details: read-out: TGI
[10] = system: COLO 205; assay: Antitumor activity against human COLO 205 cells xenografted in athymic nude mouse model assessed as gross log cell kill at 12 mg/kg, ip administered once daily in presence of gemcitabine (Gemcitabine alone = 0.5%); type: functional
[11] = AUC (0 to infinity) in Sprague-Dawley rat at 4 mg/kg, iv administered as bolus dose by LCMS analysis; type: ADME, organism-based; details: in vivo
[12] = system: HT-29; assay: Cytotoxicity in human HT-29 cells assessed as cell survival at 360 nM measured after 4 to 48 hrs by coulter counter method relative to control; type: functional; details: time 4-48 hrs, read-out: Activity
[13] = system: PC-3; assay: Antiproliferative activity against human PC-3 cells deficit of p53 expression assessed as inhibition of cell growth measured after 96 hrs by MTT assay; type: functional, cell-based; details: PC-3, 96 h
[14] = system: COLO 205; assay: Antitumor activity against human COLO 205 cells xenografted in athymic nude mouse model assessed as potentiated tumor growth inhibition at 24 mg/kg, ip administered twice daily in presence of gemcitabine relative to control; type: functional; details: read-out: TGI
[15] = system: COLO 205; assay: Antitumor activity against human COLO 205 cells xenografted in athymic nude mouse model assessed as tumor growth inhibition at 7.5 mg/kg, ip administered once daily in presence of gemcitabine (Gemcitabine alone = 40%); type: functional; details: read-out: TGI
[16] = system: COLO 205; assay: Antitumor activity against human COLO 205 cells xenografted in athymic nude mouse model assessed as gross log cell kill at 20 mg/kg, ip administered once daily in presence of gemcitabine (Gemcitabine alone = 0.5%); type: functional
[17] = system: HT-29; assay: Potentiation factor, ratio of IC50 for human HT-29 cells to IC50 for human HT-29 cells in presence of gemcitabine; type: functional
[18] = AUC (0 to infinity) in nu/nu mouse at 4 mg/kg, ip by LCMS analysis; type: ADME, organism-based; details: in vivo
[19] = system: HT-29; assay: Inhibition of gemcitabine induced cell cycle arrest in human HT-29 cells assessed as decrease in CDK1 phosphorylation level at 360 nM by immunoblot analysis; type: functional, cell-based; details: time 2-24 hrs
[20] = system: COLO 205; assay: In vivo inhibition of Chk1 in athymic nude mouse xenografted with gemcitabine treated human COLO 205 cells assessed as increase in phospho histone H2AX level at 7.5 to 15 mg/kg by immunohistochemical analysis; type: functional, organism-based; details: dose 7.5-15 mg/kg
[21] = system: HT-29; assay: Potentiation factor, ratio of IC50 for human HT-29 cells to IC50 for human HT-29 cells in presence of carboplatin; type: functional
[22] = system: COLO 205; assay: In vivo inhibition of Chk1 in athymic nude mouse xenografted with gemcitabine treated human COLO 205 cells assessed as increase in caspase-3 level by immunohistochemical analysis; type: functional, cell-based; details: dose 15-30 mg/kg
[23] = system: COLO 205; assay: Antitumor activity against human COLO 205 cells xenografted in athymic nude mouse model assessed as gross log cell kill at 40 mg/kg, ip administered twice daily in presence of gemcitabine (Gemcitabine alone = 0.5%); type: functional
[24] = system: COLO 205; assay: Antitumor activity against human COLO 205 cells xenografted in athymic nude mouse model assessed as potentiated tumor growth inhibition at 4 mg/kg, ip administered twice daily in presence of gemcitabine relative to control; type: functional; details: read-out: TGI
[25] = system: COLO 205; assay: Antitumor activity against human COLO 205 cells xenografted in athymic nude mouse model assessed as tumor growth delay by measuring test to control tumor ratio at 4 mg/kg, ip administered twice daily in presence of gemcitabine (Gemcitabine alone= 8%); type: functional
[26] = system: K562; assay: Potentiation factor, ratio of IC50 for human K562 cells to IC50 for human K562 cells in presence of carboplatin; type: functional
[27] = system: COLO 205; assay: Antitumor activity against human COLO 205 cells xenografted in athymic nude mouse model assessed as tumor growth delay by measuring test to control tumor ratio at 7.5 mg/kg, ip administered twice daily in presence of gemcitabine (Gemcitabine alone = 3%); type: functional
[28] = system: COLO 205; assay: Antitumor activity against human COLO 205 cells xenografted in athymic nude mouse model assessed as potentiated tumor growth inhibition at 15 mg/kg, ip administered once daily in presence of gemcitabine relative to control; type: functional; details: read-out: TGI
[29] = system: HT-29; assay: Potentiation of gemcitabine induced cytotoxicity in human HT-29 cells assessed as cell survival at 540 nM measured after 4 to 48 hrs by coulter counter method relative to gemcitabine alone; type: functional; details: time 4-48 hrs, read-out: Activity
[30] = system: K562; assay: Potentiation factor, ratio of IC50 for human K562 cells to IC50 for human K562 cells in presence of SN-38; type: functional
[31] = Toxicity in athymic nude mouse assessed as effect on body weight at 4 to 20 mg/kg, ip administered twice daily in presence of gemcitabine; type: organism-based; details: in vivo, dose 4-20 mg/kg
[32] = system: HT-29; assay: Potentiation of camptothecin induced cytotoxicity in human HT-29 cells assessed as cell survival at 360 nM measured after 4 to 48 hrs by coulter counter method relative to camptothecin alone; type: functional; details: time 4-48 hrs, read-out: Activity
[33] = system: COLO 205; assay: Antitumor activity against human COLO 205 cells xenografted in athymic nude mouse model assessed as potentiated tumor growth inhibition at 40 mg/kg, ip administered twice daily in presence of gemcitabine relative to control; type: functional; details: read-out: TGI
[34] = system: COLO 205; assay: Antitumor activity against human COLO 205 cells xenografted in athymic nude mouse model assessed as potentiated tumor growth inhibition at 7.5 mg/kg, ip administered once daily in presence of gemcitabine relative to control; type: functional; details: read-out: TGI
[35] = system: COLO 205; assay: Antitumor activity against human COLO 205 cells xenografted in athymic nude mouse model assessed as tumor growth delay by measuring test to control tumor ratio at 30 mg/kg, ip administered once daily in presence of gemcitabine (Gemcitabine alone = 3%); type: functional

Cyclin-dependent kinase 1, sequence (P06493 whole entry): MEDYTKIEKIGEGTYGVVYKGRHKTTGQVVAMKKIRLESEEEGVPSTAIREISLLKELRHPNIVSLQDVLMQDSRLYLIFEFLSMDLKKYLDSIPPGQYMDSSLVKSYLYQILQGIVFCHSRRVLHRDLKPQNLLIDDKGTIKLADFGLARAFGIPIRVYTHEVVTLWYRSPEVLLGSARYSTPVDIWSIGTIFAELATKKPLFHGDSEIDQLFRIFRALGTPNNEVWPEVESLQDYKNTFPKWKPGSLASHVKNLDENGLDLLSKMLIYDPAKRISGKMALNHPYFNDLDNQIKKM

Q: For Cn1cc(-c2[nH]c3cc(NC(=O)[C@H](N)C4CCCCC4)cc4c3c2C=NNC4=O)cn1, which Ki [1] is on record?
A: 9.9 nM

Q: What about the Cmax [2] of the same compound?
A: 1290 ng/mL

Q: And the LCK [3]?
A: 0.5

Q: What about the LCK [4] of the same compound?
A: 0.89

Q: And the viability at 0.36 µM [5]?
A: 71%

Q: What about the T/C [6] of the same compound?
A: 5.75

Q: And the inhibition in vivo at 30 mg/kg [7]?
A: 41%

Q: And the PF50 [8]?
A: 11.3

Q: What about the inhibition in vivo at 15 mg/kg [9] of the same compound?
A: 66%

Q: And the LCK [10]?
A: 0.53

Q: And the AUC(0-inf) [11]?
A: 5720 ng·h/mL

Q: And the viability at 0.36 µM [12]?
A: 93%

Q: What about the IC50 [13] of the same compound?
A: 1600 nM

Q: What about the inhibition in vivo at 24 mg/kg [14] of the same compound?
A: 55%

Q: And the inhibition in vivo at 7.5 mg/kg [15]?
A: 54%

Q: And the LCK [16]?
A: 0.75

Q: And the PF50 [17]?
A: 9

Q: What about the AUC(0-inf) [18] of the same compound?
A: 490 ng·h/mL

Q: And the inhibition [19]?
A: Dose-Dependent Effect

Q: What about the inhibition [20] of the same compound?
A: Active

Q: What about the PF50 [21] of the same compound?
A: 3

Q: What about the inhibition [22] of the same compound?
A: Dose-Dependent Effect

Q: And the LCK [23]?
A: 1.25

Q: And the inhibition in vivo at 4 mg/kg [24]?
A: 12%

Q: And the T/C [25]?
A: 8

Q: What about the PF50 [26] of the same compound?
A: 1.9

Q: And the T/C [27]?
A: 13.25

Q: What about the inhibition in vivo at 15 mg/kg [28] of the same compound?
A: 45%

Q: And the viability at 0.54 µM [29]?
A: 69%

Q: And the PF50 [30]?
A: 1.9

Q: And the Activity [31]?
A: Non-Toxic

Q: What about the viability at 0.36 µM [32] of the same compound?
A: 84%

Q: What about the inhibition in vivo at 40 mg/kg [33] of the same compound?
A: 75%

Q: What about the inhibition in vivo at 7.5 mg/kg [34] of the same compound?
A: 23%

Q: And the T/C [35]?
A: 7.25
